Active and inactive are the calls of the source.
Tests used:
[1] = biological target: Sphingosine 1-phosphate receptor 2 (Homo sapiens, UniProt O95136); assay: Dose Response Cell Based Assay for Agonists of the S1P2 Receptor. [Related pubchem assays: 729, 736, 843 ]; format: functional
Bcl-2-related protein A1 [2] = biological target: T1, Bcl-2-related protein A1 (Mus musculus, UniProt Q07440); assay: Bfl-1 binding inhibitors, SAR follow-up, biochemical, fluorescence polarization (AID 1070)
T1 sequence (Q07440 whole entry): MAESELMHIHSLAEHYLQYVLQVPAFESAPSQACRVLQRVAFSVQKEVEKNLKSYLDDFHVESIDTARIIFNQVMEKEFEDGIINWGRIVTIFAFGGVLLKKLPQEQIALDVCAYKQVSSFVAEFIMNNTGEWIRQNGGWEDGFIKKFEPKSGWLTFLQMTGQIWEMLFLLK

[3] = biological target: Glyceraldehyde-3-phosphate dehydrogenase (Homo sapiens, UniProt P04406)
Chain of Glyceraldehyde-3-phosphate dehydrogenase (P04406 whole entry): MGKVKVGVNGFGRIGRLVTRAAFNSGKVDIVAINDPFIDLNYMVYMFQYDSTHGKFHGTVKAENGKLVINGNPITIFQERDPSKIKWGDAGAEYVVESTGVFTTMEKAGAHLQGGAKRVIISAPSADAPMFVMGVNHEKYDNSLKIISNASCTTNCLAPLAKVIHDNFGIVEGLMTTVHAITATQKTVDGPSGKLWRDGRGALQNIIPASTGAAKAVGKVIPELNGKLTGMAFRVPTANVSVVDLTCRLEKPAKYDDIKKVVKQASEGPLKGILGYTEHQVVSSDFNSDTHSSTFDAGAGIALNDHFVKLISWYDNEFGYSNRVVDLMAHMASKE

Bcl-2-related protein A1 [4] = biological target: T1, Bcl-2-related protein A1; assay: Bfl-1 inhibitors blocking BH3 peptide binding, confirmation, biochemical, TR-FRET, mouse Bfl-1 (AID 621);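 further: TR-FRET binding of GST-Bfl-1 to FITC-labelled Bid peptide via terbium antibody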
[5] = inhibitors of HIV Env-driven cell fusion, dose response, cherry-pick (AID 652057); format: functional, cell-based
[6] = Vero cell cytotoxicity, dose response, cytotoxicity control for Vif-APOBEC3G degradation inhibitor project, Vero cells (AID 1117358); format: functional; conditions: Human immunodeficiency virus 1, Vero
[7] = CEM21 lymphoblast cell cytotoxicity, dose response, cytotoxicity control for viral fusion inhibitor project, CellTiter-Glo luminescence, cherry-picked (AID 652042); format: functional, cell-based;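 further: potency for signal decrease meaning cytotoxicity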
[8] = HeLa cell cytotoxicity, dose response, cytotoxicity control for MgcRacGAP inhibitor project (AID 624300); format: functional
[9] = biological target: E3 ubiquitin-protein ligase Mdm2 (Homo sapiens, UniProt Q00987); assay: enhancers of MDM2-luciferase reporter signal, concentration-effect titration, project on inhibitors of MDM2 ubiquitin ligase, cellular assay, luminescent readout, 384-well plate format (AID 1394); format: functional;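 further: MDM2 E3 inhibitors raise luminescence so EC50 is for signal enhancement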
Chain of E3 ubiquitin-protein ligase Mdm2 (Q00987 whole entry, the tested form may be a part): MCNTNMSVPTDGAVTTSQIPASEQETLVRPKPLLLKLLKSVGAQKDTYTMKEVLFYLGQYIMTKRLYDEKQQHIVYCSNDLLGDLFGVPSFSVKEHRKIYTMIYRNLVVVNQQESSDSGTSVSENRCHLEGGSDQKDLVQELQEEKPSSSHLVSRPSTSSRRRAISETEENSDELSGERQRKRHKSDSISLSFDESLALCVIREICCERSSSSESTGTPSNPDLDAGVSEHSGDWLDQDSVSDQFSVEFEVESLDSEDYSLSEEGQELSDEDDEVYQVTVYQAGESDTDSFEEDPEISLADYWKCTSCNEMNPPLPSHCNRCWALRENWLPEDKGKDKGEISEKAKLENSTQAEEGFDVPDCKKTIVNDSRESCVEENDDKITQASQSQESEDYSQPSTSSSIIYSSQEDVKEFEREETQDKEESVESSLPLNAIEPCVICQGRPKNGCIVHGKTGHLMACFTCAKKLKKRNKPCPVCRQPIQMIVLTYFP

[10] = biological target: T2, Carboxy-terminal domain RNA polymerase II polypeptide A small phosphatase 1 (Homo sapiens, UniProt Q9GZU7); assay: inhibitors of CTDSP1, concentration-response testing, biochemical assay, absorbance-based, actives from ultra-high-throughput screening (AID 540297); format: functional
T2 sequence (Q9GZU7 whole entry): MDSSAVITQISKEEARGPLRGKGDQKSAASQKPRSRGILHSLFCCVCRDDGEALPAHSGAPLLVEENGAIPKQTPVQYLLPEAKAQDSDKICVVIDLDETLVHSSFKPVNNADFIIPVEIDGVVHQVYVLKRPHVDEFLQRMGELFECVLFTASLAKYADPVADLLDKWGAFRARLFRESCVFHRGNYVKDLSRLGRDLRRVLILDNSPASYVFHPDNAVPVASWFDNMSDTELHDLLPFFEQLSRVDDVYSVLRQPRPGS

Streptococcus = assay: Group A Streptococcus viability loss, dose response, counter-screen for streptokinase expression inhibitor project, luminescence, BacTiterGlo (AID 1915); format: functional, organism-based;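 further: potency for reduction of bacterial viability or growth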
Streptokinase A = biological target: T3, Streptokinase A (Streptococcus pyogenes serotype M1, UniProt P10520); assay: S. pyogenes streptokinase expression inhibitors, potency, dose response, plasminogen activation absorbance, OD405 (AID 1914); format: functional, Streptococcus pyogenes M1 GAS;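 further: secreted streptokinase activity via plasminogen activation per viability signal from cell pellet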
T3 sequence (P10520 whole entry): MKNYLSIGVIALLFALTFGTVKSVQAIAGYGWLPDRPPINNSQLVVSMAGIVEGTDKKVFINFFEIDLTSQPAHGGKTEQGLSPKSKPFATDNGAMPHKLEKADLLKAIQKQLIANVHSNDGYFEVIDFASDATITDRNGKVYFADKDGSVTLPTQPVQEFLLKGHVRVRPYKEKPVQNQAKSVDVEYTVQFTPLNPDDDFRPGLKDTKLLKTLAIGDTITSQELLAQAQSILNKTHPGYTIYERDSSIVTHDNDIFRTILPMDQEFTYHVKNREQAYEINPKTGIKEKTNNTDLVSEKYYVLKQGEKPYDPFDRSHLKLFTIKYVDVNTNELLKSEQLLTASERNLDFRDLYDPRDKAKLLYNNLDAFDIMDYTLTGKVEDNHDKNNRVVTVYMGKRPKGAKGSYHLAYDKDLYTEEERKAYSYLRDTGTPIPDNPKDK

[11] = system: Streptococcus sp. 'group A'; assay: growth inhibition of control SK(-) GAS strain, dose response, counter-screen for streptokinase expression inhibitor project, luminescence, kanamycin, BacTiterGlo, confirmation (AID 1900); format: functional, organism-based
[12] = biological target: Protein-tyrosine kinase 2-beta (Homo sapiens, UniProt Q14289);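 further: potency of inhibitors of PYK2 kinase phosphorylation of poly-GT substrate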
Chain of Protein-tyrosine kinase 2-beta (Q14289 whole entry): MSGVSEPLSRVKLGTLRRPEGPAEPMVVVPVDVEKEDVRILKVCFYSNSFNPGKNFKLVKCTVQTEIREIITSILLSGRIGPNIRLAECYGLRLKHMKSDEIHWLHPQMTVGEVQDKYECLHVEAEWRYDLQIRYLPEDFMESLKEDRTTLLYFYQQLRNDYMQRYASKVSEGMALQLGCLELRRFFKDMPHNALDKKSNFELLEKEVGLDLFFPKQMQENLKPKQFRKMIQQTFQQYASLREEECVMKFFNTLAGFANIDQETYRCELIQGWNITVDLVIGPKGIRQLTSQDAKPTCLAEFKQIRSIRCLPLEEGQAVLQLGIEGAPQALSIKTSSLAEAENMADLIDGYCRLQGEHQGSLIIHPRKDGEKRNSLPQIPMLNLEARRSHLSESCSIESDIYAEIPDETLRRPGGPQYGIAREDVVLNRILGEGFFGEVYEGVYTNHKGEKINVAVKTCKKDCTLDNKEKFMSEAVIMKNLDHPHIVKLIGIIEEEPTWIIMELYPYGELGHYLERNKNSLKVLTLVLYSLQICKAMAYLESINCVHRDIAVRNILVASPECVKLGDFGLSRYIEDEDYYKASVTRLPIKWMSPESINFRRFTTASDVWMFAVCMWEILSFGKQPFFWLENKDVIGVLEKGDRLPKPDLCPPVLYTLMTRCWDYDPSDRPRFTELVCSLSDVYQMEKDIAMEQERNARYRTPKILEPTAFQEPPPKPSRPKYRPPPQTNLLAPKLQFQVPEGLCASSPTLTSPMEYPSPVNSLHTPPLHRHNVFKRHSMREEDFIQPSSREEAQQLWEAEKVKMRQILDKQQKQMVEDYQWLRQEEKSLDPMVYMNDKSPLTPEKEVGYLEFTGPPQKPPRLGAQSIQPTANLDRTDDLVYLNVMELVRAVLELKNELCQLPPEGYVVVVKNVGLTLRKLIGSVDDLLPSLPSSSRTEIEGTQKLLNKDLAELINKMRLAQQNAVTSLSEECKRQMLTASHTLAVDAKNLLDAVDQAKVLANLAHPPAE

Cytochrome P450 2C9 = Cytochrome P450 2C9 (Homo sapiens, UniProt P11712)
Chain of Cytochrome P450 2C9 (P11712 whole entry): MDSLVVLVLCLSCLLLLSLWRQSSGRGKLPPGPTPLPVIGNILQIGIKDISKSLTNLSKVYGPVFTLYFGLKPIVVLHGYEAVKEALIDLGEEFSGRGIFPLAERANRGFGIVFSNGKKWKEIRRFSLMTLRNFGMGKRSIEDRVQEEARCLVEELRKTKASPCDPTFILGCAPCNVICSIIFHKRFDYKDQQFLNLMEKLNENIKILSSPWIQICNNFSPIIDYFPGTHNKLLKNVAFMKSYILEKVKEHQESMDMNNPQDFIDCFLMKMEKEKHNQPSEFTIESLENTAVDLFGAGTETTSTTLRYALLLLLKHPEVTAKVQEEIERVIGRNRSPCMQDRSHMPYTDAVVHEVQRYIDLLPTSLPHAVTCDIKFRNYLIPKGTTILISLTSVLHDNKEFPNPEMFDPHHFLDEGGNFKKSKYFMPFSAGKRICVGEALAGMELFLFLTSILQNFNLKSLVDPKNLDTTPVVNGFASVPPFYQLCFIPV

Cytochrome P450 2C19 = Cytochrome P450 2C19 (Homo sapiens, UniProt P33261); assay: Cytochrome panel assay with activity outcomes. Panel member name: p450-cyp2c19 Compounds with AC50 equal or less than 10 uM are considered active; format: functional; conditions: read-out: AC50
Chain of Cytochrome P450 2C19 (P33261 whole entry): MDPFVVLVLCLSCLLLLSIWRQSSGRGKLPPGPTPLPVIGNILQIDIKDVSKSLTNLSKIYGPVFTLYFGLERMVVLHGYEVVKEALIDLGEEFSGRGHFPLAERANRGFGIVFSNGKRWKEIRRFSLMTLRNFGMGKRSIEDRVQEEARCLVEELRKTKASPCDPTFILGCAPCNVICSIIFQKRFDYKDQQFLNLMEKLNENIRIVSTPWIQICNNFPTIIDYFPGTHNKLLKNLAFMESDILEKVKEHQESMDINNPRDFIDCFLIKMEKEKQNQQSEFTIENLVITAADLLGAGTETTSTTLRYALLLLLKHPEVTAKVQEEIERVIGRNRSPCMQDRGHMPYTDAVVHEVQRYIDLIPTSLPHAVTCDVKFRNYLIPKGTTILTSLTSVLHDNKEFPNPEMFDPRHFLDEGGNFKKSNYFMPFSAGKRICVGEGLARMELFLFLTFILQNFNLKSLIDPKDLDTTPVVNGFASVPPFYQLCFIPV

Cytochrome P450 1A2 = biological target: T4, Cytochrome P450 1A2 (Homo sapiens, UniProt P05177);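 further: PubChem cytochrome P450 panel assay, CYP1A2 panel member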
T4 sequence (P05177 whole entry): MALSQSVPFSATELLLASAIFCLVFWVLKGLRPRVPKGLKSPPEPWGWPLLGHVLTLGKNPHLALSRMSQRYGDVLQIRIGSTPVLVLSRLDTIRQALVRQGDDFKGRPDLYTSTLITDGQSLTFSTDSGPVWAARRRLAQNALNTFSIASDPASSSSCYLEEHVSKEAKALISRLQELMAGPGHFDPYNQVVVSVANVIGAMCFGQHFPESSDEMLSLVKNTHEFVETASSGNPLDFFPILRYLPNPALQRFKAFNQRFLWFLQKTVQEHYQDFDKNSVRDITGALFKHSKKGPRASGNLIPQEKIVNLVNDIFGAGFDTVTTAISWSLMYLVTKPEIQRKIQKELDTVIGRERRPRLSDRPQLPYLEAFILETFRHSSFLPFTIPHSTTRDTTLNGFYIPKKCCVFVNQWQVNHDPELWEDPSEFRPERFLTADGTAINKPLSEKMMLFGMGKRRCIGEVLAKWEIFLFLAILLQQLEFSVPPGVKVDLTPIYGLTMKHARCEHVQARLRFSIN

Cytochrome P450 3A4 = Cytochrome P450 3A4 (Homo sapiens, UniProt P08684);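 further: CYP3A4 tested as one member of a cytochrome P450 panel screen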
Chain of Cytochrome P450 3A4 (P08684 whole entry): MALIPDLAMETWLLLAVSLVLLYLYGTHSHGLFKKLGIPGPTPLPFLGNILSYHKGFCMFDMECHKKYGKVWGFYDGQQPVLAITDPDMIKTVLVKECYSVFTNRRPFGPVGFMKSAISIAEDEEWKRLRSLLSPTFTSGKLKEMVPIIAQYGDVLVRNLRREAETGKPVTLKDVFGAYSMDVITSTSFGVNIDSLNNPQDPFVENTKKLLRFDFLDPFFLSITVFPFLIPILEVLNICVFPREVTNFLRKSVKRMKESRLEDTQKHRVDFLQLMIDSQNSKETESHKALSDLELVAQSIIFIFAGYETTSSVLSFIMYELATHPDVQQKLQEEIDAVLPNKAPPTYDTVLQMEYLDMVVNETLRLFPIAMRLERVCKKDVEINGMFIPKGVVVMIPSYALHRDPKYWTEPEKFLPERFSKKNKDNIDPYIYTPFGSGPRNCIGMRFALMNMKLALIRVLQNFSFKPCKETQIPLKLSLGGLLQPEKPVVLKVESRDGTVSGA

Chain of Sphingosine 1-phosphate receptor 2 (O95136 whole entry): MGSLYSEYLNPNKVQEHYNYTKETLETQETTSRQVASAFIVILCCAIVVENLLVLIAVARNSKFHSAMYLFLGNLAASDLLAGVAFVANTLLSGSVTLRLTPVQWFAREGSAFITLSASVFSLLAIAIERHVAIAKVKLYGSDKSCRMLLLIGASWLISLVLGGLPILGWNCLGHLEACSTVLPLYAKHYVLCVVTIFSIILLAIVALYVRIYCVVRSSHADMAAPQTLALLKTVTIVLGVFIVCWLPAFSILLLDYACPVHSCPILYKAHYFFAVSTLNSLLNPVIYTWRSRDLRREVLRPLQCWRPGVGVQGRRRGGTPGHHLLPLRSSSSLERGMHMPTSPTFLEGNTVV

Compound: Cc1cc(-c2nnc(SCC(=O)NC3CCCC3)o2)no1
- EC50 [1]: > 50 µM (not active)

Compound: O=C1C(Cl)=C(N2CCN(Cc3ccc4c(c3)OCO4)CC2)C(=O)N1c1ccc([N+](=O)[O-])cc1
- IC50 (Bcl-2-related protein A1 [2]): 4.68 µM (active)
- IC50 [3]: > 100 µM (not active)
- IC50 (Bcl-2-related protein A1 [4]): 4.59 µM (active)

Compound: COc1ccc2[nH]c3c(N4CCC(O)(c5cccc(C(F)(F)F)c5)CC4)ncnc3c2c1
- AC50 [5]: 9.77 µM (active)
- CC50 [6]: 29.4 µM (active)
- AC50 [7]: 7.3 µM (active)
- CC50 [8]: 33 µM (active)

Compound: Cc1ccsc1C1Nc2ccc3ncccc3c2C2=C1C(=O)CCC2 (stereo not drawn)
- EC50 [9]: 25 µM (not active)

Compound: COc1ccc(Cn2c(-c3ccco3)nc3oc4cc(OC)ccc4c(=O)c3c2=O)cc1
- IC50 [10]: 7.58 µM (active)
- EC50 [1]: > 50 µM (not active)
- EC50 (Streptococcus): > 150 µM (not active)
- EC50 (Streptokinase A): > 150 µM (not active)
- EC50 [11]: 25.5 µM (active)

Compound: O=C1C(Cl)=C(N2CCN(c3ccc(F)cc3)CC2)C(=O)N1c1ccc(Cl)c(Cl)c1
- IC50 (Bcl-2-related protein A1 [2]): > 100 µM (not active)
- IC50 (Bcl-2-related protein A1 [4]): 19.1 µM (active)

Compound: C=CCn1c(P(=O)(O)c2ccccc2)nc2ccccc21
- IC50 [12]: 26.6 µM (not active)
- AC50 (Cytochrome P450 2C9): 25.1 µM (inconclusive)
- AC50 (Cytochrome P450 2C19): 6.31 µM (inconclusive)
- AC50 (Cytochrome P450 1A2): 15.8 µM (inconclusive)
- AC50 (Cytochrome P450 3A4): inconclusive

Compound: COC(=O)C(C(=O)Nc1ccc(OC)cc1)C1CCCCCC1 (stereo not drawn)
- CC50 [6]: > 40 µM (active)

Compound: NC(=O)c1c(NC(=O)C2CCCO2)sc2c1CCCC2 (stereo not drawn)
- EC50 [9]: 7.26 µM (not active)

From ChEMBL document CHEMBL1201862, “PubChem BioAssay data set” (2004)
